Reference: patent US10239840B2, “Benzoazepine derivatives” (ViiV HEALTHCARE UK LIMITED, priority 2015, dated 2019)

Test system: HIV
Assay: MT4 assay, antiviral HIV activity
Assay type: cell-based
Settings: MT-4 cells (HTLV-1 transformed), read-out at 96 hours with cell titer glo
Protocol: Antiviral HIV activity and cytotoxicity values for compounds of the invention from Table 1 were measured in parallel in the HTLV-1 transformed cell line MT-4 based on the method previously described (Hazen et al., 2007, In vitro antiviral activity of the novel, tyrosyl-based human immunodeficiency virus (HIV) type 1 protease inhibitor brecanavir (GW640385) in combination with other antiretrovirals and against a panel of protease inhibitor-resistant HIV (Hazen et al., “In vitro antiviral activity of the novel, tyrosyl-based human immunodeficiency virus (HIV) type 1 protease inhibitor brecanavir (GW640385) in combination with other antiretrovirals and against a panel of protease inhibitor-resistant HIV”, Antimicrob. Agents Chemother. 2007, 51: 3147-3154; and Pauwels et al., “Sensitive and rapid assay on MT-4 cells for the detection of antiviral compounds against the AIDS virus”, J. of Virological Methods 1987, 16: 171-185).
Luciferase activity was measured 96 hours later by adding a cell titer glo (Promega, Madison, Wis.). Percent inhibition of cell protection data was plotted relative to no compound control. Under the same condition, cytotoxicity of the compounds was determined using cell titer Glo™ (Promega, Madison, Wis.). IC50s were determined from a 10 point dose response curve using 3-4-fold serial dilution for each compound, which spans a concentration range >1000 fold.
These values are plotted against the molar compound concentrations using the standard four parameter logistic equation: y=((Vmax*x^n)/(K^n+x^n)+Y2
Y2=minimum γ n=slope factor
Vmax=maximum γ x=compound concentration [M]

Structure (SMILES)	IC50 [nM]
Cc1ccc(-c2c(C)c3c(c(C)c2[C@H](OC(C)(C)C)C(=O)O)CCN(C(=O)c2cccc(F)c2)CC3)cc1 [Example 4, (S)-2-(tert-butoxy)-2-(3-(3-fluorobenzoyl)-6,9-dimethyl-8-(p-tolyl)-2,3,4,5-tetrahydro-1H-benzo[d]azepin-7-yl)acetic Acid]	34
Cc1c(-c2c(C)c3c(c(C)c2[C@H](OC(C)(C)C)C(=O)O)CCN(S(=O)(=O)N2CCCCC2)CC3)cc(F)c2c1CCCO2 (atropisomer, axis not shown; (M)) [Example 21, (2S)-2-(tert-butoxy)-2-((M)-8-(8-fluoro-5-methylchroman-6-yl)-6,9-dimethyl-3-(piperidin-1-ylsulfonyl)-2,3,4,5-tetrahydro-1H-benzo[d]azepin-7-yl)acetic Acid]	8
Cc1c(-c2c(C)c3c(c(C)c2[C@H](OC(C)(C)C)C(=O)O)CCN(CC2CCCCC2)CC3)cc(F)c2c1CCCO2 (atropisomer, axis not shown; (M)) [Example 17, (S)-2-(tert-butoxy)-2-((M)-3-(cyclohexylmethyl)-8-(8-fluoro-5-methylchroman-6-yl)-6,9-dimethyl-2,3,4,5-tetrahydro-1H-benzo[d]azepin-7-yl)acetic Acid]	10
Cc1c(-c2c(C)c3c(c(C)c2[C@H](OC(C)(C)C)C(=O)O)CCN(C(=O)c2cccc(F)c2)CC3)cc(Cl)c2c1CCCO2 (atropisomer, axis not shown; (M)) [Example 1, (S)-2-(tert-butoxy)-2-((M)-8-(8-chloro-5-methylchroman-6-yl)-3-(3-fluorobenzoyl)-6,9-dimethyl-2,3,4,5-tetrahydro-1H-benzo[d]azepin-7-yl)acetic Acid]	27
Cc1c(-c2c(C)c3c(c(C)c2[C@H](OC(C)(C)C)C(=O)O)CCN(C(=O)c2cccc(F)c2)CC3)cc(F)c2c1CCCO2 (atropisomer, axis not shown; (M)) [Example 5, (2S)-2-(tert-butoxy)-2-((M)-8-(8-fluoro-5-methylchroman-6-yl)-3-(3-fluorobenzoyl)-6,9-dimethyl-2,3,4,5-tetrahydro-1H-benzo[d]azepin-7-yl)acetic Acid]	5
COc1cc(C(=O)N2CCc3c(C)c(-c4cc(F)c5c(c4C)CCCO5)c([C@H](OC(C)(C)C)C(=O)O)c(C)c3CC2)ccc1F (atropisomer, axis not shown; (M)) [Example 13, (S)-2-(tert-butoxy)-2-((M)-3-(4-fluoro-3-methoxybenzoyl)-8-(8-fluoro-5-methylchroman-6-yl)-6,9-dimethyl-2,3,4,5-tetrahydro-1H-benzo[d]azepin-7-yl)acetic Acid]	4
Cc1c(-c2c(C)c3c(c(C)c2[C@H](OC(C)(C)C)C(=O)O)CCN(C(=O)C(=O)N2CCCCC2)CC3)cc(F)c2c1CCCO2 (atropisomer, axis not shown; (M)) [Example 14, (S)-2-(tert-butoxy)-2-((M)-8-(8-fluoro-5-methylchroman-6-yl)-6,9-dimethyl-3-(2-oxo-2-(piperidin-1-yl)acetyl)-2,3,4,5-tetrahydro-1H-benzo[d]azepin-7-yl)acetic Acid]	17
Cc1c(-c2c(C)c3c(c(C)c2[C@H](OC(C)(C)C)C(=O)O)CCN(C(=O)CC(C)(C)C)CC3)cc(F)c2c1CCCO2 (atropisomer, axis not shown; (M)) [Example 6, (S)-2-(tert-butoxy)-2-((M)-3-(3,3-dimethylbutanoyl)-8-(8-fluoro-5-methylchroman-6-yl)-6,9-dimethyl-2,3,4,5-tetrahydro-1H-benzo[d]azepin-7-yl)acetic Acid]	60
Cc1c(-c2c(C)c3c(c(C)c2[C@H](OC(C)(C)C)C(=O)O)CCN(Cc2cccc(F)c2)CC3)cc(F)c2c1CCCO2 (atropisomer, axis not shown; (M)) [Example 15, (S)-2-(tert-butoxy)-2-((M)-8-(8-fluoro-5-methylchroman-6-yl)-3-(3-fluorobenzyl)-6,9-dimethyl-2,3,4,5-tetrahydro-1H-benzo[d]azepin-7-yl)acetic Acid]	77
Cc1c(-c2c(C)c3c(c(C)c2[C@H](OC(C)(C)C)C(=O)O)CCN(CCC2CCCCC2)CC3)cc(F)c2c1CCCO2 (atropisomer, axis not shown; (M)) [Example 16, (2S)-2-(tert-butoxy)-2-((M)-3-(2-cyclohexylethyl)-8-(8-fluoro-5-methylchroman-6-yl)-6,9-dimethyl-2,3,4,5-tetrahydro-1H-benzo[d]azepin-7-yl)acetic Acid]	13
Cc1c(-c2c(C)c3c(c(C)c2[C@H](OC(C)(C)C)C(=O)O)CCN(C2CCCCC2)CC3)cc(F)c2c1CCCO2 (atropisomer, axis not shown; (M)) [Example 18, (2S)-2-(tert-butoxy)-2-((M)-3-cyclohexyl-8-(8-fluoro-5-methylchroman-6-yl)-6,9-dimethyl-2,3,4,5-tetrahydro-1H-benzo[d]azepin-7-yl)acetic Acid]	13
Cc1c(-c2c(C)c3c(c(C)c2[C@H](OC(C)(C)C)C(=O)O)CCN(c2ccccc2)CC3)cc(F)c2c1CCCO2 (atropisomer, axis not shown; (M)) [Example 19, (2S)-2-(tert-butoxy)-2-((M)-8-(8-fluoro-5-methylchroman-6-yl)-6,9-dimethyl-3-phenyl-2,3,4,5-tetrahydro-1H-benzo[d]azepin-7-yl)acetic Acid]	92
Cc1c(-c2c(C)c3c(c(C)c2[C@H](OC(C)(C)C)C(=O)O)CCN(S(=O)(=O)C2CCCCC2)CC3)cc(F)c2c1CCCO2 (atropisomer, axis not shown; (M)) [Example 20, (2S)-2-(tert-butoxy)-2-((M)-3-(cyclohexylsulfonyl)-8-(8-fluoro-5-methylchroman-6-yl)-6,9-dimethyl-2,3,4,5-tetrahydro-1H-benzo[d]azepin-7-yl)acetic Acid]	42
Cc1c(-c2c(C)c3c(c(C)c2[C@H](OC(C)(C)C)C(=O)O)CCN(C(=O)N2CCCCC2)CC3)cc(F)c2c1CCCO2 (atropisomer, axis not shown; (M)) [Example 22, (2S)-2-(tert-butoxy)-2-((M)-8-(8-fluoro-5-methylchroman-6-yl)-6,9-dimethyl-3-(piperidine-1-carbonyl)-2,3,4,5-tetrahydro-1H-benzo[d]azepin-7-yl)acetic Acid]	9
COc1c(F)cccc1C(=O)N1CCc2c(C)c(-c3cc(F)c4c(c3C)CCCO4)c([C@H](OC(C)(C)C)C(=O)O)c(C)c2CC1 (atropisomer, axis not shown; (M)) [Example 10, (S)-2-(tert-butoxy)-2-((M)-3-(3-fluoro-2-methoxybenzoyl)-8-(8-fluoro-5-methylchroman-6-yl)-6,9-dimethyl-2,3,4,5-tetrahydro-1H-benzo[d]azepin-7-yl)acetic Acid]	5
COc1ccc(C(=O)N2CCc3c(C)c(-c4cc(F)c5c(c4C)CCCO5)c([C@H](OC(C)(C)C)C(=O)O)c(C)c3CC2)cc1C (atropisomer, axis not shown; (M)) [Example 9, (S)-2-(tert-butoxy)-2-((M)-8-(8-fluoro-5-methylchroman-6-yl)-3-(4-methoxy-3-methylbenzoyl)-6,9-dimethyl-2,3,4,5-tetrahydro-1H-benzo[d]azepin-7-yl)acetic Acid]	14
COc1ccc(F)cc1C(=O)N1CCc2c(C)c(-c3cc(F)c4c(c3C)CCCO4)c([C@H](OC(C)(C)C)C(=O)O)c(C)c2CC1 (atropisomer, axis not shown; (M)) [Example 7, (S)-2-(tert-butoxy)-2-((M)-3-(5-fluoro-2-methoxybenzoyl)-8-(8-fluoro-5-methylchroman-6-yl)-6,9-dimethyl-2,3,4,5-tetrahydro-1H-benzo[d]azepin-7-yl)acetic Acid]	5
COc1ccc(-c2c(C)c3c(c(C)c2[C@H](OC(C)(C)C)C(=O)O)CCN(C(=O)c2cccc(F)c2)CC3)cc1 [Example 2, (S)-2-(tert-butoxy)-2-(3-(3-fluorobenzoyl)-8-(4-methoxyphenyl)-6,9-dimethyl-2,3,4,5-tetrahydro-1H-benzo[d]azepin-7-yl)acetic Acid]	76
Cc1c2c(c(C)c([C@H](OC(C)(C)C)C(=O)O)c1-c1ccccc1)CCN(C(=O)c1cccc(F)c1)CC2 [Example 3, (S)-2-(tert-butoxy)-2-(3-(3-fluorobenzoyl)-6,9-dimethyl-8-phenyl-2,3,4,5-tetrahydro-1H-benzo[d]azepin-7-yl)acetic Acid]	219
Cc1c(-c2c(C)c3c(c(C)c2[C@H](OC(C)(C)C)C(=O)O)CCN(C(=O)c2cccc4c2OCC4)CC3)cc(F)c2c1CCCO2 (atropisomer, axis not shown; (M)) [Example 11, (S)-2-(tert-butoxy)-2-((M)-3-(2,3-dihydrobenzofuran-7-carbonyl)-8-(8-fluoro-5-methylchroman-6-yl)-6,9-dimethyl-2,3,4,5-tetrahydro-1H-benzo[d]azepin-7-yl)acetic Acid]	9
COc1ccc(C)cc1C(=O)N1CCc2c(C)c(-c3cc(F)c4c(c3C)CCCO4)c([C@H](OC(C)(C)C)C(=O)O)c(C)c2CC1 (atropisomer, axis not shown; (M)) [Example 8, (S)-2-(tert-butoxy)-2-((M)-8-(8-fluoro-5-methylchroman-6-yl)-3-(2-methoxy-5-methylbenzoyl)-6,9-dimethyl-2,3,4,5-tetrahydro-1H-benzo[d]azepin-7-yl)acetic Acid]	4
